Literature values in patent US10188693B2, “Methods for treatment of atherosclerosis” (Stealth BioTherapeutics Corp, priority 2012, dated 2019).

Tests used:
hepatitis C virus (HCV) = settings: in vitro model of HCV infection (alone and with interferon); cited from earlier work
[1] = system: spinal cord injury in rodents; settings: administered both pre- and post-injury; cited from earlier work

Row | Structure (SMILES) | anti-HCV effect, in words (hepatitis C virus (HCV)) | effect on spinal cord injury, in words [1]
1 | CC(C)c1c(C(=O)Nc2ccccc2)c(-c2ccccc2)c(-c2ccc(F)cc2)n1CC[C@@H](O)C[C@@H](O)CC(=O)O [atorvastatin] | anti-HCV effect | promoting locomotion and tissue sparing, as well as reducing inflammation
2 | CC[C@H](C)C(=O)O[C@H]1C[C@@H](C)C=C2C=C[C@H](C)[C@H](CC[C@@H]3C[C@@H](O)CC(=O)O3)[C@H]21 [lovastatin] | anti-HCV effect | –
3 | O=C(O)C[C@H](O)C[C@H](O)/C=C/c1c(C2CC2)nc2ccccc2c1-c1ccc(F)cc1 [pitavastatin] | anti-HCV effect | –
